Source: US7198942B2, “Acetylcholine receptor subunits” (Bayer CropScience LP, priority 2000, dated 2007)

Legend:
[1] = tested on: Untransfected control cells (Sf9); test: Whole-cell recordings on untransfected Sf9 control cells; format: cell-based, Spodoptera frugiperda; conditions: untransfected Sf9 control cells in the same experiment
Description: Spodoptera frugiperda 9 (Sf9) cells were transfected simultaneously with cDNA expression plasmids which code for the modified heliothis/chicken subunit and for the chicken β2 subunit using a liposomal transfection reagent (DAC-30, Eurogentec, Belgium). A cDNA expression construct for the green fluorescent protein from Aequoria victoria was transfected simultaneously. This makes it possible simply to identify transfected cells because experience has shown that most of the cells which have taken up one of the constructs have also taken up the other ones. 24 to 48 hours after transfection, the currents through the cell membrane of the Sf9 cells were measured by whole-cell recordings. For this purpose, the potential difference across the cell membrane was kept constant at −70 mV. Substances were applied using the U-tube reversed flow technique (Fenwick 1982). […]
To check whether expression of the cDNAs which code for the modified heliothis/chicken subunit shown in SEQ ID NO: 3 and the chicken β2 subunit led to the production of functional acetylcholine receptors in the cells, whole-cell recordings were carried out by the method described above, during which the cells were stimulated with acetylcholine (1000 μM) or imidacloprid (100 μM). […] In order to quantify the results, a series of experiments was carried out with 5 measurements. […]

[2] = tested on: receptors comprising unmodified Heliothis α1 subunits and chicken β2 subunits; test: Dual electrode voltage clamp on Xenopus oocytes expressing Heliothis α1/chicken β2 receptors; format: cell-based, Heliothis virescens / chicken; conditions: membrane voltage −80 mV, FIG. 2C
Experimental: (§1) Xenopus oocytes were isolated and prepared as previously described (Bertrand et al. 1991). On the first day after isolation of the oocytes, in each case 10 nl of a solution with 2 ng of an appropriate cDNA expression vector were injected into the cell nuclei of the oocytes. The oocytes were kept at 19° C. in a suitable medium (BARTH solution consisting (in mM) of NaCl 88, KCl 1, NaHCO3 2.4, MgSO4 0.82, Ca(NO3)2 0.33, CaCl2 0.41, HEPES 10, pH 7.4) for 3–5 days. After this time, the electrophysiological experiments were carried out.
Electrophysiological recordings were carried out using a dual electrode voltage clamp by tried and tested methods which are well known (compare Bertrand et al. 1992). Each oocyte was placed singly in a measurement chamber and pierced by two microelectrodes. […] The membrane voltage was fixed at −80 mV using a voltage clamp amplifier (TEC-00, npi, Tamm, Germany), and the inward current flowing through the cell membrane was measured and recorded by computer. […]
(§2) In order to characterize the sensitivity of the modified receptors to acetylcholine and imidacloprid in more detail, dose-effect plots were recorded by repeating the experiment described above with different concentrations of the substance.

[3] = molecular target: T1, receptors consisting of the chicken β2 subunit and polypeptide according to SEQ ID NO: 11 (Gallus gallus, UniProt P09482+P09484, A209V/D197E/E200T/E219T/G202V/G211A/I207L/I224P/K217F/L196S/N208E/N212V/P226L/Q195L/S215E/S231N/T222D/V205D/V210P/W199Y/Y198F/Y213R/Y230F); format: cell-based, Heliothis virescens / chicken; conditions: Xenopus oocytes, membrane voltage −80 mV
T1 construct: expressed in transfected cells; host or cells: Xenopus oocytes (nuclear injection of cDNA expression vectors)
Experimental: as §1
(§3) Electrophysiological recordings were carried out using a dual electrode voltage clamp by tried and tested methods which are well known (compare Bertrand et al. 1992). Each oocyte was placed singly in a measurement chamber and pierced by two microelectrodes. […] The membrane voltage was fixed at −80 mV using a voltage clamp amplifier (TEC-00, npi, Tamm, Germany), and the inward current flowing through the cell membrane was measured and recorded by computer. Frog Ringer solution containing 115 mM NaCl; 2.5 mM KCl; 1.8 mM CaCl2; 10 mM HEPES; at pH 7.4 (adjusted with NaOH) flowed at a flow rate of 5–10 ml/minute through the measurement chamber. In order to test acetylcholine, imidacloprid or another active substance on these oocytes, the substance was added in the intended concentration to the frog Ringer solution and the perfusion of the measurement chamber was briefly changed over to this test solution. Acetylcholine (Fluka, Buchs, Switzerland) was stored as stock solution at −20° C. and added to the measurement solution immediately before the experiment.
(§4) In this case it is immediately evident from the occurrence of an additional inward current signal whether the receptor variant expressed in the particular oocyte can be activated by imidacloprid or not.
as §2

[4] = molecular target: T2, receptors consisting of the chicken β2 subunit and polypeptide according to SEQ ID NO: 3 (Gallus gallus, UniProt P09482+P09484, A129E/D127N/D141T/F139N/F162Y/H132L/H137T/I144V/K145E/K171V/L133A/M147R/N169T/S157E/T161E); format: cell-based, Heliothis virescens / chicken; conditions: Xenopus oocytes, membrane voltage −80 mV, FIG. 2A
T2 construct: expressed in transfected cells; host or cells: Xenopus oocytes (nuclear injection of cDNA expression vectors)
Experimental: as §1, §3, §4, §2

[5] = molecular target: T3, receptors consisting of the chicken β2 subunit and polypeptide according to SEQ ID NO: 7 (Gallus gallus, UniProt P09482+P09484, INS192RGTNVVELG); format: cell-based, Heliothis virescens / chicken; conditions: Xenopus oocytes, membrane voltage −80 mV
T3 construct: expressed in transfected cells; host or cells: Xenopus oocytes (nuclear injection of cDNA expression vectors)
Experimental: as §1, §3, §4, §2

[6] = molecular target: T4, receptor containing polypeptide shown in SEQ ID NO: 3 and the chicken β2 subunit (Gallus gallus, UniProt P09482+P09484, A129E/D127N/D141T/F139N/F162Y/H132L/H137T/I144V/K145E/K171V/L133A/M147R/N169T/S157E/T161E); test: Whole-cell recordings on transfected Sf9 cells, SEQ ID NO: 3/chicken β2; format: cell-based, Heliothis virescens / chicken; conditions: −70 mV
T4 construct: expressed in transfected cells; host or cells: Spodoptera frugiperda Sf9 cells (transient, DAC-30; GFP co-transfected as a marker)
Description: Spodoptera frugiperda 9 (Sf9) cells were transfected simultaneously with cDNA expression plasmids which code for the modified heliothis/chicken subunit and for the chicken β2 subunit using a liposomal transfection reagent (DAC-30, Eurogentec, Belgium). A cDNA expression construct for the green fluorescent protein from Aequoria victoria was transfected simultaneously. This makes it possible simply to identify transfected cells because experience has shown that most of the cells which have taken up one of the constructs have also taken up the other ones. 24 to 48 hours after transfection, the currents through the cell membrane of the Sf9 cells were measured by whole-cell recordings. For this purpose, the potential difference across the cell membrane was kept constant at −70 mV. Substances were applied using the U-tube reversed flow technique (Fenwick 1982). The volume of the experimental chamber, which was continuously perfused with bath solution (3 ml/min), was less than 0.5 ml. […] The pipette solution contained (in mM): 150 KCl, 10 HEPES 10 K-EGTA (pH 7.2). The microelectrodes were produced in an electrode puller (Zeitz, Germany) from borosilicate glass blanks (external diameter 1.6 mm, Hilgenberg, Germany). The resistance of the flame-polished microelectrodes on use of the abovementioned pipette and bath solutions was between 4 and 6 MΩ. […]

[7] = molecular target: chicken α4 subunit and the chicken β2 subunit (Gallus gallus, UniProt P09482+P09484); test: Whole-cell recordings on transfected Sf9 cells, chicken α4/β2; format: cell-based; conditions: −70 mV

CC(=O)OCC[N+](C)(C)C [acetylcholine]
response (inward current) [1]: no response

O=[N+]([O-])NC1=NCCN1Cc1ccc(Cl)nc1 [imidacloprid]
sensitivity (ligand-induced conductance) [2]: sensitive | ligand-induced conductance / sensitivity [3]: only the receptors consisting of the chicken β2 subunit and polypeptides according to SEQ ID NO: 3 are sensitive to imidacloprid | ligand-induced conductance / sensitivity [4]: sensitive | ligand-induced conductance / sensitivity [5]: only the receptors consisting of the chicken β2 subunit and polypeptides according to SEQ ID NO: 3 are sensitive to imidacloprid | inward currents after stimulus ([6]; 100 μM imidacloprid, FIG. 3): strong inward currents | amplitude ratio (maximum amplitude on 100 μM imidacloprid divided by maximum amplitude on 1000 μM acetylcholine) ([6]; n=5 cells): 0.46±0.09 | inward currents on application ([7]; 100 μM imidacloprid): either no or only very weak inward currents | amplitude ratio (maximum amplitude on 100 μM imidacloprid divided by maximum amplitude on 1000 μM acetylcholine) ([7]; n=5 cells): 0.05±0.06 | response (inward current) [1]: no response
